# From patent US7851436B2, “Inhibition of migration and induction of cell death by the type II collagen amino propeptides” (Washington University, priority 2007, dated 2010)
# Entries after “also recorded” stand apart in the source; their conditions may differ.
# How the values were obtained:
# MDA-MB231 cells = experiment: Cell survival assay in MDA-MB231 cells; assay type: cell-based, human
# Method: Cell Culture. Human Chondrosarcoma cell line (Ch-1) was isolated from a portion of chondrosarcoma tumor. […] HUVEC cells were a gift from Dr. William Frazier (Washington University) and were cultured in M199 Earle's medium with 10 units/ml of penicillin, 5 μg/ml streptomycin and 0.25 μg/ml Fungizone supplemented with 10% FBS, 0.1 mg/ml L-glutamine, 25 mM Hepes, 16 units/ml of heparin (Sigma) and 0.1 mg/ml endothelial cell mitogen (Biochemical Technologies).
# (§1) Detection of Cell Death. Cells were cultured to confluence in a 24-well plate pre-coated with type I collagen, fibronectin (Sigma), and ECM Matrigel (Becton Dickinson). Proteins in serum-free medium were added to the cells. Cells were monitored by light microscopy and images were digitally photographed using a Q capture Retiga 2000R camera. Quantification of cells remaining in the well was performed by washing with PBS for three times, fixing with 4% paraformaldehyde. The cells per field (×400) were counted for three field per well (3 wells per measurement). The mean number and standard deviation (SD) were calculated.
# Ch-1 cells = experiment: Detection of cell death in Ch-1 cells; assay type: cell-based, human; settings: 0.8 μM
# Method: Cell Culture. Human Chondrosarcoma cell line (Ch-1) was isolated from a portion of chondrosarcoma tumor. The Ch-1 cell line was maintained in RPMI-1640 supplemented with 10% FBS and at 37° C. in a humidified, 5% CO2 atmosphere. Human chondrocytes were obtained from Dr. Davis Adkisson (ISTO Technologies, St. Louis) or isolated from macroscopically intact tissue obtained from total joint arthroplasty as described (Bassleer et al., 1998). HeLa 229 cells and MDA-MB 231 cell lines were provided by Dr. Kathy Weilbaecher (Washington University) and were cultured in RPMI medium supplemented with 10% FBS. HUVEC cells were a gift from Dr. William Frazier (Washington University) and were cultured in M199 Earle's medium with 10 units/ml of penicillin, 5 μg/ml streptomycin and 0.25 μg/ml Fungizone supplemented with 10% FBS, 0.1 mg/ml L-glutamine, 25 mM Hepes, 16 units/ml of heparin (Sigma) and 0.1 mg/ml endothelial cell mitogen (Biochemical Technologies).
# as §1
# β1, α4, and α5 integrin = experiment: Cell surface labeling and GST pull-down with immunoblotting (other integrins); assay type: binding, human; settings: b23: β1 only; b113: β1, α4 and α5
# Method: Immunoblotting. Western blotting was performed as described (7). Blots were probed with the following primary antibodies: rabbit anti αV, α2, α3, α5, β1, β3, β5 integrin and goat anti actin (Saint Cruz), chicken anti PIIBNP antiserum, and mouse anti exon 2 antiserum.
# Cell Surface labeling and GST Pull-down Assay. Ch-1 cells were incubated with EZ-link Sulfo-NHS-Biotin reagent for 30 mins. according to the product instruction (Sigma). After 3 washes with 0.1 M glycine in PBS, the cells were lysed with a lysis buffer described above. The lysate was incubated with glutathione derivatized agarose beads previously bound with GST, PIIANP, PIIBNP or mPIIBNP for 1 hr. at RT. […] The membrane was washed and incubated with antibodies and then incubated with a secondary antibody coupled to horseradish peroxidase. The antibody complex was visualized by enhanced chemiluminescence.
# rings of rat aorta = experiment: Aortic ring formation assay
# Method: FIG. 8 depicts a graph and photograph showing rat aortic ring formation. Angiogenesis was assayed by culturing rings of rat aorta in three-dimensional collagen gel. The culture was performed at 37° C. in a humidified environment for a week in the presence FGF and mPIIBNP or PIIBNP (0.1 to 3 mM). The microvessel outgrowth was examined and visualized every second day with an Olympus microscope. The pictures were taken before the measurement of the microvessels. (FIG. 8A) The length of microvessels was measured and total length for each measurement was added (FIG. 8B). PIIBNP inhibited aortic ring formation, with an IC50 of less than 0.1 μM.
# Aortic Ring Formation Assay. Angiogenesis was assayed by culturing rings of rat aorta in three-dimensional collagen gels as reported. The cultures were kept at 37° C. in a humidified environment for a week in the presence of FGF and GST or PIIBNP (0.1-10 μM). The microvessel outgrowth was examined every second day with an Olympus microscope. The length of microvessels was measured and total length for each measurement was added.
substance,measurement,setting,value
"PIIBNP: Recombinant human Type IIB procollagen NH2-propeptide (exons 3-8, lacking exon 2), expressed as GST fusion protein",cell survival,MDA-MB231 cells; MDA cells,30%
same,cell death,"MDA-MB231 cells; MDA-MB231 cells, FIG. 4L",> 70%
same,cell survival,Ch-1 cells,20-30%
same,induction of cell death in Ch-1 cells,"Ch-1 cells; serum free medium, 24 hrs, type I collagen, fibronectin or Matrigel coated plates",resulted in cell death in a concentration and time-dependent manner; also recorded: induced cell death
same,reaction of integrin antibodies with material pulled out by PIIBNP,"β1, α4, and α5 integrin",did not react
same,inhibition of endothelial outgrowth from rat aorta,rings of rat aorta; freshly isolated rat aorta,able to inhibit endothelial outgrowth in a concentration dependent manner
same,IC50,"rings of rat aorta; three-dimensional collagen gel, FGF, a week, read-out: IC50 of inhibition of aortic ring formation",< 0.1 µM
